In patent US7972798B2, “Method for identifying diabetic patients at increased risk for pathological complications” (The United States of America as represented by the …, priority 2007, dated 2011):
Entries after “also recorded” stand apart in the source; their conditions may differ.

Columns and labels:
Bovine endothelial cells = experiment: Apoptosis assay (Hoechst 33342 / propidium iodide) in endothelial cells; type: cell-based
Method: Apoptosis Assay. Endothelial cells were cultured in 24-well plates to reach ˜90% confluence. Purified IgG was added directly to cultured medium. At 0, 6, 12, 18 and 24 hours, culture media was removed and the cells were incubated in a balanced salt solution (BSS) (140 mM NaCl, 2.8 mM KCl, 2 mM CaCl2, 2 mM MgCl2, 10 mM HEPES, pH 7.2) containing propidium iodide (PI, 25 μg/ml) and Hoechst 33342 (10 μM, Sigma) for 15 min. The cells were examined by Zeiss Axiovert 200M microscope using 20× objective (NA 0.4) for phase contrast, fluorescent blue (Hoechst) and red (PI) images. As a membrane permeable dye, Hoechst stains all nuclei with bright blue, while cell impermeable PI only stains the nuclei in the dying cells, which lost their membrane integrity. Early apoptotic cells whose membranes are still intact present only blue nuclei, but the initiation of DNA fragmentation result in patched labeling of the nuclei by Hoechst (14). Cells entering the late apoptotic stage have bright red condensed chromatin or fragmented nuclei that distinguish them from necrotic ones, which have a uniform red color usually with enlarged nuclei. For each experiment, a minimum of total 400 cells for each duplicated sample were counted from at least five randomly chosen fields and the percentage of total apoptotic cells was obtained by adding early and late apoptotic cells. Each experiment was repeated at least three times.

endothelial cells = experiment: F-actin stress fiber formation in endothelial cells (phalloidin staining); type: cell-based, bovine; settings: co-incubation, 10 uM
Method: For bright field images, the ˜90% confluent endothelial cells in 24-well plates with various treatments were visualized under Zeiss Axiovert 200 inverted microscope with phase contrast 20× dry lens (NA 0.4). Alternatively, the cells cultured in glass-bottom dishes were monitored under transmission light mode (DIC images) with Zeiss LSM510 META confocal microscope with 63×, water immersion lens (NA 1.2). The live cell DIC images of the endothelial cells were captured continuously up to 15 minutes at room temperature at the speed of about 1 frame/min. For fluorescence images, the cells were cultured on glass-bottom dishes for two days before the experiments. At indicated time point after addition of autoantibodies, 10 μM Hoechst dye 33342 (Sigma Inc., St Louis, Mo.) was added into the culture medium for 15 min at 37° C. in a dark chamber. As described previously, the chromatin condensation and fragmentation was visualized with the Zeiss confocal laser scanning microscope using a 63× water immersion objective, with the excitation wavelength set at 351 nm and the emission filter set at 385-470 nm. We used Texas Red-labeled phalloidin to visualize actin stress fibers. First, we aseptically inserted glass coverslips (12-mm diameter) into 24-well tissue culture plate. […]

[1] = system: rat pheochromocytoma (PC12) cells; experiment: bFGF-induced neurite outgrowth assay in PC12 cells; type: cell-based
Method: Undifferentiated rat PC12 cells were obtained from American Type Culture Collection (Rockville, Md.) and plated at low density in 60 mm dishes. Three groups of 25-50 cells/dish were counted at baseline and at 3 days and 8 days after the addition of test patient protein-A eluate fractions (1:50 or 1:100 dilutions corresponding to 1-30 ug/mL protein). Neurite outgrowth represents the percentage of PC12 cells expressing more than one neurite. A neurite is defined as a cell process that is at least 2 cell diameters in length. Results represent the mean±SD of triplicate determinations in each test fraction.
Undifferentiated rat PC12 cells obtained from the ATCC were plated at low density. Groups of 25-50 cells/dish were counted at baseline and at 3 and 8 days after exposure to 10 ng/mL basic fibroblast growth factor in the presence or absence of test diabetic plasma IgG fractions and Y27632. Results represent triplicate determinations for each test fraction.

## CC(C)[C@H](NC(=O)c1ccc2ccccc2n1)C(=O)N[C@@H](CC(=O)O)C(=O)COc1c(F)cccc1F [Q-VD-OPH]
Bovine endothelial cells; 10 μM, 12 hours
  block of apoptosis in cells exposed to IgG from patient #2: almost completely blocked apoptosis
Bovine endothelial cells; concentration not given
  block of apoptosis in cells exposed to diabetic plasma IgG: nearly completely blocked apoptosis

## C[C@@H](N)[C@H]1CC[C@H](C(=O)Nc2ccncc2)CC1 [Patient Y27632, Y27632]
Bovine endothelial cells; 10 uM, n=3 experiments
  inhibition of endothelial cell apoptosis from one diabetic IgG fraction: partially inhibited
Endothelial cells
  inhibition of autoantibody-induced stress fiber formation: largely inhibited
[1]; Y27632 1 uM, bFGF 10 ng/mL, autoantibodies from three diabetic patients
  restoration of bFGF-induced neurite outgrowth in presence of blocking autoantibodies: completely restored neurite outgrowth
[1]; co-incubation, concentration not stated
  restoration of bFGF-induced neurite outgrowth in presence of blocking autoantibodies: abolished; also recorded: neutralization of inhibition; also recorded: reversal
[1]; co-incubation, concentration not stated, listed as Y-27632
  restoration of bFGF-induced neurite outgrowth in presence of blocking autoantibodies: completely restored

## bFGF: Recombinant human bFGF from Austral Biologicals
Bovine endothelial cells; 100 pg/mL bFGF co-incubated with 4-30 ug/mL active protein-A eluate from 5 of 5 diabetic maculopathy plasmas, preliminary
  rescue or prevention of eluate-induced apoptosis: did not rescue or prevent apoptosis
